From the supplement of paper PMC10307832

Key:
Test in all cases: relative viability (nuclei count vs DMSO), 5 days (fraction); higher = more cells survive
Vorinostat + Decitabine = compound: O=C(CCCCCCC(=O)Nc1ccccc1)NO [Vorinostat] + Nc1ncn([C@H]2C[C@H](O)[C@@H](CO)O2)c(=O)n1 [Decitabine] (partner 2 µM)
Method in brief: (§1)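 After 5 days of treatment, lung cancer cells in 1536-well plates were fixed and stained in a single step (final 0.05% Triton X-100, 1% formaldehyde, 1 ug/ml Hoechst) and their nuclei counted on 4× images. Treatment had been applied by pin tool the day after seeding as one drug alone or as a fixed anchor-drug dose with five library-drug doses (not always all listed) in √10 steps. Relative viability is the nuclei count of treated wells divided by that of vehicle wells, and values are medians of duplicate plates.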

Vorinostat + Lapatinib = compound: O=C(CCCCCCC(=O)Nc1ccccc1)NO [Vorinostat] + CS(=O)(=O)CCNCc1ccc(-c2ccc3ncnc(Nc4ccc(OCc5cccc(F)c5)c(Cl)c4)c3c2)o1 [Lapatinib] (partner 2 µM)
Method in brief: as §1

Vorinostat + Alpelisib = compound: O=C(CCCCCCC(=O)Nc1ccccc1)NO [Vorinostat] + Cc1nc(NC(=O)N2CCC[C@H]2C(N)=O)sc1-c1ccnc(C(C)(C)C(F)(F)F)c1 [Alpelisib] (partner 2 µM)
Method in brief: as §1

Vorinostat + Olaparib = compound: O=C(CCCCCCC(=O)Nc1ccccc1)NO [Vorinostat] + O=C(c1cc(Cc2n[nH]c(=O)c3ccccc23)ccc1F)N1CCN(C(=O)C2CC2)CC1 [Olaparib] (partner 8 µM)
Method in brief: as §1

Vorinostat + Dasatinib = compound: O=C(CCCCCCC(=O)Nc1ccccc1)NO [Vorinostat] + Cc1nc(Nc2ncc(C(=O)Nc3c(C)cccc3Cl)s2)cc(N2CCN(CCO)CC2)n1 [Dasatinib] (partner 0.075 µM)
Method in brief: as §1

Cell Line | relative viability (Vorinostat + Decitabine; first compound 0.253 µM) | relative viability (Vorinostat + Decitabine; first compound 0.8 µM) | relative viability (Vorinostat + Decitabine; first compound 2.53 µM) | relative viability (Vorinostat + Decitabine; first compound 8 µM) | relative viability (Vorinostat + Lapatinib; first compound 0.253 µM) | relative viability (Vorinostat + Lapatinib; first compound 0.8 µM) | relative viability (Vorinostat + Lapatinib; first compound 2.53 µM) | relative viability (Vorinostat + Lapatinib; first compound 8 µM) | relative viability (Vorinostat + Alpelisib; first compound 0.253 µM) | relative viability (Vorinostat + Alpelisib; first compound 0.8 µM) | relative viability (Vorinostat + Alpelisib; first compound 2.53 µM) | relative viability (Vorinostat + Alpelisib; first compound 8 µM) | relative viability (Vorinostat + Olaparib; first compound 0.253 µM) | relative viability (Vorinostat + Olaparib; first compound 0.8 µM) | relative viability (Vorinostat + Olaparib; first compound 2.53 µM) | relative viability (Vorinostat + Olaparib; first compound 8 µM) | relative viability (Vorinostat + Dasatinib; first compound 0.253 µM) | relative viability (Vorinostat + Dasatinib; first compound 0.8 µM) | relative viability (Vorinostat + Dasatinib; first compound 2.53 µM) | relative viability (Vorinostat + Dasatinib; first compound 8 µM)
201T | 0.845 | 0.874 | 0.679 | 0.266 | 1.05 | 0.954 | 0.929 | 0.567 | 0.965 | 0.982 | 0.751 | 0.309 | 0.852 | 0.814 | 0.523 | 0.255 | 0.578 | 0.503 | 0.381 | 0.221
A-427 | 0.551 | 0.557 | 0.434 | 0.166 | 1.1 | 1.05 | 0.929 | 0.23 | 1.1 | 1.1 | 0.889 | 0.146 | 0.71 | 0.789 | 0.468 | 0.21 | 0.823 | 0.565 | 0.332 | 0.133
ABC-1 | 1.33 | 0.896 | 0.421 | 0.158 | 1.14 | 1.12 | 1.13 | 0.27 | 1.02 | 0.636 | 0.354 | 0.161 | 1.02 | 1.3 | 0.78 | 0.196 | 0.531 | 0.41 | 0.221 | 0.131
BEN | 0.838 | 0.55 | 0.236 | 0.143 | 0.819 | 0.379 | 0.151 | 0.0751 | 1.07 | 0.457 | 0.154 | 0.0775 | 1.15 | 0.791 | 0.281 | 0.1 | 0.306 | 0.233 | 0.157 | 0.06
CAL-12T |  |  |  |  | 0.682 | 0.649 | 0.438 | 0.111 | 1.18 | 1.07 | 0.462 | 0.0781 | 0.82 | 0.824 | 0.532 | 0.138 | 0.481 | 0.471 | 0.269 | 0.0806
COR-L23 | 0.373 | 0.301 | 0.136 | 0.0929 | 1.07 | 0.818 | 0.139 | 0.0646 | 0.834 | 0.372 | 0.0994 | 0.0715 | 0.301 | 0.246 | 0.0921 | 0.0666 | 0.501 | 0.291 | 0.0778 | 0.0572
COR-L 105 | 0.588 | 0.679 | 0.362 | 0.256 | 0.425 | 0.287 | 0.252 | 0.249 | 1.37 | 0.783 | 0.249 | 0.184 | 0.727 | 0.821 | 0.589 | 0.266 | 0.377 | 0.394 | 0.259 | 0.196
ChaGo-K-1 | 0.508 | 0.516 | 0.389 | 0.202 |  |  |  |  |  |  |  |  | 0.46 | 0.34 | 0.219 | 0.141 | 0.656 | 0.568 | 0.444 | 0.246
EKVX | 0.31 | 0.324 | 0.194 | 0.133 | 0.217 | 0.209 | 0.173 | 0.107 | 0.992 | 0.951 | 0.4 | 0.14 | 1.02 | 0.833 | 0.335 | 0.15 | 0.535 | 0.528 | 0.236 | 0.179
